Assay results taken from ChEMBL document CHEMBL1641581, “Ring A-seco triterpenoids with antibacterial activity from Dysoxylum hainanense” (2011).
In brackets after ≈: the same amount, converted by molar mass.

Columns and labels:
Format in all cases: functional
Staphylococcus aureus = assay: Antibacterial activity against Staphylococcus aureus ATCC 25923 assessed as inhibition of visible growth
[1] = test system: Staphylococcus epidermidis; assay: Antibacterial activity against Staphylococcus epidermidis ATCC 12228 assessed as inhibition of visible growth
Micrococcus luteus = assay: Antibacterial activity against Micrococcus luteus ATCC 9341 assessed as inhibition of visible growth
Bacillus subtilis = assay: Antibacterial activity against Bacillus subtilis ATCC 6633 assessed as inhibition of visible growth
Escherichia coli = assay: Antibacterial activity against Escherichia coli ATCC 25922 assessed as inhibition of visible growth
Shigella flexneri = assay: Antibacterial activity against Shigella flexneri ATCC 12022 assessed as inhibition of visible growth
Pseudomonas aeruginosa = assay: Antibacterial activity against Pseudomonas aeruginosa ATCC 14502 assessed as inhibition of visible growth
Candida albicans = assay: Antifungal activity against Candida albicans ATCC 1600 assessed as inhibition of visible growth
Saccharomyces = assay: Antifungal activity against Saccharomyces sake ATCC 26421 assessed as inhibition of visible growth
Nannizzia gypsea = assay: Antifungal activity against Microsporum gypseum ATCC 14683 assessed as inhibition of visible growth
Trichophyton rubrum = assay: Antifungal activity against Trichophyton rubrum ATCC 10218 assessed as inhibition of visible growth

Row | SMILES | MIC (Staphylococcus aureus) | MIC [1] | MIC (Micrococcus luteus) | MIC (Bacillus subtilis) | MIC (Escherichia coli) | MIC (Shigella flexneri) | MIC (Pseudomonas aeruginosa) | MIC (Candida albicans) | MIC (Saccharomyces) | MIC (Nannizzia gypsea) | MIC (Trichophyton rubrum)
1 | C=C(C)[C@@H]1CC[C@]2(C)[C@H](CC[C@@H]3[C@H]4[C@H](C(C)(C)O)CC[C@]4(C)CC[C@]32C)[C@@]1(C)CCC(=O)O [DYSOXYHAINIC ACID H] | > 50 µg/mL | > 50 µg/mL | 3.12 µg/mL (≈ 6.8 µM) | 3.12 µg/mL (≈ 6.8 µM) | > 50 µg/mL | > 50 µg/mL | > 50 µg/mL | > 50 µg/mL | > 50 µg/mL | > 50 µg/mL | > 50 µg/mL
2 | COC(=O)C1=CC[C@@]23CC[C@@H]([C@@](C)(/C=C/C=C(\C)C(=O)O)OC2=O)[C@@]3(OC(C)=O)CC1 [PSEUDOLARIC ACID B] |  |  |  |  |  |  |  | 6.25 µg/mL (≈ 14.5 µM) | 12.5 µg/mL (≈ 28.9 µM) | 12.5 µg/mL (≈ 28.9 µM) | 25 µg/mL (≈ 57.8 µM)
3 | CC1(C)CC[C@]2(C)CC[C@]3(C)C(=CC=C4[C@@](C)(CCC(=O)O)[C@H](C(C)(C)O)CC[C@]43C)[C@@H]2C1 [DYSOXYHAINIC ACID J] | > 50 µg/mL | > 50 µg/mL | > 50 µg/mL | > 50 µg/mL | > 50 µg/mL | > 50 µg/mL | > 50 µg/mL | > 50 µg/mL | > 50 µg/mL | > 50 µg/mL | > 50 µg/mL
4 | CC1(C)CC[C@]2(C)CC[C@]3(C)C(=CC[C@@H]4[C@@](C)(CCC(=O)O)[C@H](C(C)(C)O)CC[C@]43C)[C@@H]2C1 [DYSOXYHAINIC ACID I] | > 50 µg/mL | 12.5 µg/mL (≈ 27.2 µM) | > 50 µg/mL | 1.56 µg/mL (≈ 3.4 µM) | > 50 µg/mL | > 50 µg/mL | > 50 µg/mL | > 50 µg/mL | > 50 µg/mL | > 50 µg/mL | > 50 µg/mL

The next lines start with the values.

Row | MIC (Staphylococcus aureus) | MIC [1] | MIC (Micrococcus luteus) | MIC (Bacillus subtilis) | MIC (Escherichia coli) | MIC (Shigella flexneri) | MIC (Pseudomonas aeruginosa) | MIC (Candida albicans) | MIC (Saccharomyces) | MIC (Nannizzia gypsea) | MIC (Trichophyton rubrum) | SMILES
5 | 25 µg/mL (≈ 93.9 µM) | 12.5 µg/mL (≈ 46.9 µM) | 12.5 µg/mL (≈ 46.9 µM) | 12.5 µg/mL (≈ 46.9 µM) | > 50 µg/mL | > 50 µg/mL | > 50 µg/mL |  |  |  |  | C=CCc1ccc(O)c(-c2cc(CC=C)ccc2O)c1 [MAGNOLOL]
6 | > 50 µg/mL | > 50 µg/mL | > 50 µg/mL | > 50 µg/mL | > 50 µg/mL | > 50 µg/mL | > 50 µg/mL | > 50 µg/mL | > 50 µg/mL | > 50 µg/mL | > 50 µg/mL | CC(C)(C(=O)O)[C@@H]1CC[C@]2(C)[C@H](CC=C3[C@@H]4C[C@@](C)(C(=O)O)CC[C@]4(C)CC[C@]32C)[C@@]1(C)C(=O)O [DYSOXYHAINIC ACID F]
7 | > 50 µg/mL | 3.12 µg/mL (≈ 6.44 µM) | 3.12 µg/mL (≈ 6.44 µM) | 3.12 µg/mL (≈ 6.44 µM) | > 50 µg/mL | > 50 µg/mL | > 50 µg/mL | > 50 µg/mL | > 50 µg/mL | > 50 µg/mL | > 50 µg/mL | C=C(C)[C@@H]1CC[C@]2(C)[C@H](CC=C3[C@@H]4C[C@@](C)(C(=O)O)CC[C@]4(C)CC[C@]32C)[C@@]1(C)CCC(=O)OC [DYSOXYHAINIC ACID G]
8 | > 50 µg/mL | 12.5 µg/mL (≈ 26.6 µM) | > 50 µg/mL | 6.25 µg/mL (≈ 13.3 µM) | > 50 µg/mL | > 50 µg/mL | > 50 µg/mL | > 50 µg/mL | > 50 µg/mL | > 50 µg/mL | > 50 µg/mL | C=C(C)[C@@H]1CC[C@]2(C)[C@H](CC=C3[C@@H]4C[C@@](C)(C(=O)O)CC[C@]4(C)CC[C@]32C)[C@@]1(C)CCC(=O)O [KOETJAPIC ACID]
